The source of these data is patent publication US20150133411A1, “COMPOUNDS WITH TRPV4 ACTIVITY, COMPOSITIONS AND ASSOCIATED METHODS THEREOF” (The University of Utah Research Foundation, priority 2012, published 2015).

The test system of one test is MB model of glaucoma. The test can be described thus: IOP time course after single eye drop in MB model of glaucoma. The format is in vivo, mouse. Conditions: single dose eye drop. How it is done: Specifically, microbeads (MBs) were injected into the anterior chamber of a mouse eye as described in Example 2 with PBS-injected eyes used as controls. Compound 1 (10 mg/kg body weight) (or PBS vehicle) was injected intraperitoneally (IP). […] IOP was measured in mice between 10:00 AM and 1:00 PM with the TonoLab rebound tonometer (Colonial Medical Supply, Franconia, NH/Tyolat, Helsinki, Finland). Mice were sedated with IP injection of Avertin with final amount calculated by weight (e.g., 0.5 ml for 21-24 g animals). Animals were placed on a jack stand platform and the tonolab was clamped on a ring stand and centered onto the mid-cornea. During measurements animal were neither restrained nor touched. Each eye was measured twenty consecutive times, the highest and lowest values were discarded and the values were averaged.
FIG. 9 illustrates the short-term effects of a single dose of Compound 1 (eye drop) in the MB model of glaucoma. IOP was measured as described in Example 3 at the indicated time points after receiving a drop of Compound 1. Compound 1 reduced IOP beginning at 1 hour after dosing and continued through 6 hours after dosing.
FIG. 10 illustrates a time course of Compounds 1, 2, 5 and Compound 2-HCl as well as a positive control compound, timolol, with regard to inhibition of IOP. The experiment was conducted as described in Example 9. Each of the TRPV4 antagonists reduced IOP with a similar time course. Specifically, Compounds 1, 2, 5 and Compound 2-HCl reduced IOP for at least 6 hours after dosing.
FIG. 11 illustrates a time course of Compound 2-HCl activity. The experiment was conducted as described in Example 9. […] 2
FIG. 12 illustrates a comparison of the time course of Compound 2-HCl and Compound 5. The experiment was conducted as described in Example 9.

The next test has as its system retinal ganglion cell. Kind of test: High-Speed Pressure Clamp, pressure-induced inward currents. The format is cell-based. The note with it: voltage-clamped retinal ganglion cell, pressure steps 10 to 50 mm Hg. How it is done:
The cell was voltage clamped and stimulated with the High-Speed Pressure Clamp method, as detailed by Besch et al (Pflugers Arch. 2002 October; 445(1):161-6). This method consists of a specialized headstage coupled to a piezo element in the pressure/vacuum control valve. By balancing the access of pressure to the patch pipette, the device generates rapid and reproducible pressure steps of >±200 mm Hg. Channel activity is recorded in the cell-attached mode or the membrane is “zapped” into the outside-out configuration.

In test [1] the test system is retinal ganglion cells. The test can be described thus: Hypotonic swelling-induced calcium influx into retinal ganglion cells (Fura-2). The test is classed as cell-based. Conditions: FIG. 17C. The source says:
Cells were labeled with fluorescent calcium indicator dye Fura-2 and exposed to hypotonic solutions in which extracellular sodium was replaced by the osmotically inert substance mannitol, as described in […] et al. (J Neurosci. 2011 May 11; 31(19):7089-101; PMID 21562271).

The test system of test [2] is retinal neurons (RGCs) and glia (Müller cells). The test can be described thus: Hypotonic stimuli: cell swelling (change in cell area) and [Ca++]i. The test is classed as cell-based. The source says: FIG. 18A illustrates the effect of hypotonic stimuli on cell swelling as measured by change in cell area. Hypotonic stimuli were generated by replacing extracellular sodium levels to lower osmolarity from 300 mOsm to 190 mOsm.

In another test the test system is Müller cells. The test can be described thus: Arachidonic acid-induced [Ca2+]i in Müller cells. The test is classed as cell-based. The note with it: 1 μM, 10 μM arachidonic acid. The procedure:
This response is blocked by Compound 1 (1 μM).

For test [3], the system named is retinal ganglion cells. Kind of test: In vivo intraocular injection of GSK, NeuN+ RGC count. The note with it: intraocular GSK, 48 hours. How it is done: In this experiment, GSK (100-300 nM) was injected intraocularly with a Hamilton syringe. Retinas were isolated after 48 hours, fixed and labeled with the RGC marker antibody NeuN. NeuN-immunopositive somata in the ganglion cell layer, shown in the panel on the right, were counted. The bar graph represents quantification of NeuN^+ cells in the indicated experimental groups.

The test system of test [4] is retinal ganglion cells. Kind of test: TUNEL assay of apoptotic cell death in retinas. The test is classed as cell-based. The note with it: Compound 1 1 uM, RuR 10 μM. How it is done: Terminal deoxynucleotidyl transferase-mediated dUTP-biotin nick end labeling (TUNEL) is a common method for detecting fragmentation that results from apoptotic signaling cascades. Retinas were embedded, cryosectioned, and processed for the TUNEL assay following the protocol by Gavrieli et al. (1992). After 30 min. rehydration in 70% ethanol, 2×5 min. rinses in PBS and 1% Triton-X in 1% citrate buffer (pH 7.3), the slides were subjected to a final rinse in PBS. Slides were then incubated for 30 min. in the reaction buffer (30 mM Trizma-HCl, 140 mM cacodylate, 1.0 mM CaCl2, 0.2% Triton X-100, pH 7.2). Positive controls were treated with DNAse I (Roche Diagnostics; Branford, Conn.; 10 U/ml) in the reaction buffer. Next, slides were treated for 1 hour with 0.03 units/μl terminal transferase and 4 μM biotin-16-dUTP (Roche Diagnostics). The reaction was terminated in 30 mM Na+ citrate, 300 mM NaCl and 0.2% Triton X-100 in PBS (5 min.) and rinsed in PBS (2×5 min), exposed to 1% bovine serum albumin in PBS for 20 min and rinsed. Apoptotic cells were visualized with a confocal microscope (Zeiss LSM510) and categorized by size. […] This was blocked by RuR and by the TRPV4 antagonist Compound 1.

A further test addresses TRPV4 (Mus musculus, UniProt Q9EPK8). The test can be described thus: AGB cation influx into retinal cells (anti-AGB antibody). The test is classed as cell-based. Details: these two cell types express TRPV4 channels in the mouse retina; from tissue; host or cells: mouse retina (retinal ganglion cells and Müller glial cells). Conditions: mouse retina. How it is done:
FIG. 16 illustrates the effect of the TRPV4 agonist GSK on cation influx into mouse retinal cells of the mouse retina. The influx was determined using the anti-AGB antibody, as described by Marc R E (J Comp Neurol 407(1): 47-64, 1999). AGB is a membrane permeant cation that can flow through most known cation channels. Using an anti-AGB antibody, it can be determined where the cation flux occurs and, therefore, which cells are activated.

Sequence of TRPV4 (Q9EPK8 whole entry): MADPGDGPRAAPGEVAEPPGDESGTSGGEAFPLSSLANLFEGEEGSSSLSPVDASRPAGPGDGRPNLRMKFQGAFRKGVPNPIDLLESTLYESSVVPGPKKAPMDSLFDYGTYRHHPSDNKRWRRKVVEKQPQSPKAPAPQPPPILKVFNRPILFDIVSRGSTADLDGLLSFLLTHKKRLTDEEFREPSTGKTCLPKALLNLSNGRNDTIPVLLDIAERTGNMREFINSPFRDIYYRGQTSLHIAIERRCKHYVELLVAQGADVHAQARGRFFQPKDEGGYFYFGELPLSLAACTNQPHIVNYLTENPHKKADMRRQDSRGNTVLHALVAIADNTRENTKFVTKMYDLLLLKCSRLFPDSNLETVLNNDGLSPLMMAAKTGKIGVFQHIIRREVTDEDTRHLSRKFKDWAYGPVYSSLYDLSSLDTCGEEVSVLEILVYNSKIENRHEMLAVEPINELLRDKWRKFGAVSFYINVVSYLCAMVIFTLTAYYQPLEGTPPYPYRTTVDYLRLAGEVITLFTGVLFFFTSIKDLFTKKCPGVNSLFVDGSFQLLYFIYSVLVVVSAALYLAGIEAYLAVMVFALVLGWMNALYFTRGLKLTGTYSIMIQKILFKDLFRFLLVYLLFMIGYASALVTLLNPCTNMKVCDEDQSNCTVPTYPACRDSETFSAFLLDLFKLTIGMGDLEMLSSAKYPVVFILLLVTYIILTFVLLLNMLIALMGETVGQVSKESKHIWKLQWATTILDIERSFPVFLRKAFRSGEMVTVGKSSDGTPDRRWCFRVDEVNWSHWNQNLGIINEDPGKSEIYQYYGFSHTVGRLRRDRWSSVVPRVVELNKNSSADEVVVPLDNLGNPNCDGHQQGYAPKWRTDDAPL

`Cc1c(C(=O)Nc2cccc(C(F)(F)F)c2)cc(-c2ccccc2)n1CCCN1CCOCC1` [Compound 1, N-(3-(trifluoromethyl)phenyl)-2-methyl-1-(3-morpholinopropyl)-5-phenyl-1H-pyrrole-3-carboxamide]: in the test with MB model of glaucoma, the “time after dosing at which IOP reduction begins” value was determined as 1 h. The pressure-induced inward currents result in the test with retinal ganglion cell is “reversibly antagonized”. In addition, in the test on retinal ganglion cells [1], the “pressure-dependent influx of calcium in RGCs” value is given as “prevents”. Moreover, the “hypotonic stimuli-induced increase in [Ca++]i” value in test [2] (FIG. 18B) is on record as “inhibited”. Besides, the “cell swelling (change in cell area)” value in test [2] (hypotonic stimuli, 300 mOsm to 190 mOsm) is “prevented hypotonic stimuli-mediated cell swelling to the same extent as BAPTA-AM”. In addition, the “effect on arachidonic acid-induced [Ca2+]i increase” value in the test on Müller cells is listed as “blocked”. Moreover, the “effect on GSK-induced degeneration of RGC” value with retinal ganglion cells [3] is reported as “blocked”. The “apoptotic cell death induced by hypotonic swelling (TUNEL)” value in the test with retinal ganglion cells [4] (190 mOsm saline) is “block apoptotic cell death”. Also, the “apoptotic cell death induced by TRPV4 agonist GSK (TUNEL)” value in the test with retinal ganglion cells [4] (GSK 100 nM) is “block apoptotic cell death”. Besides, the “effect on GSK-induced AGB cation influx” value on TRPV4 is listed as “strongly antagonized”.
